Experimental data taken from publication PMC6320955, “Self-Dissolving Microneedle Arrays for Transdermal Absorption Enhancement of Human Parathyroid Hormone (1-34)” (Pharmaceutics, 2018).

Columns and labels:
[1] = Storage stability of PTH in MNs fabricated from HA and in PBS solution; assay type: physicochemical; conditions: PTH dissolved in PBS, PTH (1-34) ELISA, mean of three experiments
Protocol: PTH-loaded MNs were packaged into an aluminum sachet purged with nitrogen and stored at −20 °C, 4 °C, or at room temperature (15–20 °C). PTH solution dissolved in PBS was kept at the same temperatures as the control. Following one month of storage, the needles were separated from the back layers of MNs and dissolved in PBS. The actual amounts of PTH present in the needle parts of the MNs were measured using the PTH (1-34) ELISA kit (PTH (1-34), Human, EIA Kit, High Sensitivity, Peninsula Laboratories International, Inc. San Carlos, CA, USA).

[2] = In vivo transdermal delivery of PTH: plasma pharmacokinetics; design: species or system Wistar rats; conditions: sc, 20 ug/animal, rat, subcutaneous injection of PTH solution, 20 µg/rat, ELISA, mean ± SD of three rats
Protocol: The abdominal skin of Wistar rats was shaved while the animals were placed under pentobarbital anesthesia (52 mg/kg as pentobarbital sodium salt). PTH-loaded MNs (20 µg/rat) were then applied to the abdominal skin of rats. The dosage of PTH in MNs was calculated based on the content of PTH in the needle part of MNs. Separately, PTH solution (20 µg/rat) was subcutaneously injected into the backs of rats. At pre-determined intervals, 0.3 mL of blood was withdrawn from the jugular veins while the animals were placed under pentobarbital anesthesia (52 mg/kg as pentobarbital sodium salt) and collected in tubes containing 0.3 mg of EDTA and 150 KIU of aprotinin. The collected blood was then centrifuged for 15 min at 4000 rpm to obtain plasma. […] The peak PTH plasma concentration (Cmax) and time to reach Cmax (Tmax) were determined directly from the plasma concentration–time profiles. Area under the plasma concentration-time curve (AUC) after transdermal administration or subcutaneous injection was calculated by the trapezoidal formula and extrapolation to infinite time based on monoexponential equation [26].
The PTH in the plasma sample was extracted and purified using SEP-columns. […] Concentrations of PTH were determined using the PTH (1-34) ELISA kit (PTH (1-34), Human, EIA Kit, High Sensitivity, Peninsula Laboratories International, Inc. San Carlos, CA, USA).

[3] = system: rats with ovariectomy (OVX)-induced osteoporosis; assay: Therapeutic potential in post-menopausal rat model of osteoporosis (OVX); assay type: in vivo, female Sprague-Dawley rats; conditions: subcutaneous injection of PTH 20 µg/rat, hematoxylin and eosin
Protocol: The post-menopausal rat model of osteoporosis was established by performing ovariectomies (OVX) of female Sprague-Dawley rats. Four weeks following OVX, PTH-loaded MNs (20 µg/rat) were applied to the rats twice a week, for a period of 4 weeks. Separately, PTH (20 µg/rat) was subcutaneously injected into the rats. Eight weeks after OVX, rats were euthanized, and the tibias were excised and fixed in 4% paraformaldehyde in PBS. The fixed tibias were then embedded in paraffin and sectioned by microtome. The sections of tibias were subsequently stained with hematoxylin and eosin and then used for histological analysis.

## CC[C@H](C)[C@H](NC(=O)[C@H](CCC(=O)O)NC(=O)[C@H](CO)NC(=O)[C@@H](NC(=O)[C@@H](N)CO)C(C)C)C(=O)N[C@@H](CCC(N)=O)C(=O)N[C@@H](CC(C)C)C(=O)N[C@@H](CCSC)C(=O)N[C@@H](Cc1c[nH]cn1)C(=O)N[C@@H](CC(N)=O)C(=O)N[C@@H](CC(C)C)C(=O)NCC(=O)N[C@@H](CCCCN)C(=O)N[C@@H](Cc1c[nH]cn1)C(=O)N[C@@H](CC(C)C)C(=O)N[C@@H](CC(N)=O)C(=O)N[C@@H](CO)C(=O)N[C@@H](CCSC)C(=O)N[C@@H](CCC(=O)O)C(=O)N[C@@H](CCCNC(=N)N)C(=O)N[C@H](C(=O)N[C@@H](CCC(=O)O)C(=O)N[C@@H](Cc1c[nH]c2ccccc12)C(=O)N[C@@H](CC(C)C)C(=O)N[C@@H](CCCNC(=N)N)C(=O)N[C@@H](CCCCN)C(=O)N[C@@H](CCCCN)C(=O)N[C@@H](CC(C)C)C(=O)N[C@@H](CCC(N)=O)C(=O)N[C@@H](CC(=O)O)C(=O)N[C@H](C(=O)N[C@@H](Cc1c[nH]cn1)C(=O)N[C@@H](CC(N)=O)C(=O)N[C@@H](Cc1ccccc1)C(=O)O)C(C)C)C(C)C [PTH, Human parathyroid hormone (1-34)]
[1]; stored one month at 4 °C
  initial PTH retained in the solution after storage: ~84%
[1]; stored one month at room temperature (15–20 °C)
  initial PTH retained in the solution after storage: ~13%
[1]; stored one month at −20 °C
  initial PTH retained in the solution after storage: approximately 98%
[2]; Wistar
  Cmax: 15.1 ± 4.6 ng/mL
[2]; in vivo
  Tmax: 30 min
[3]
  effect on decrease in bone matrix density (tibia histology): effectively prevented
